Where “and” joins values, the source holds several entries; their conditions need not be identical. Equal values may be shown once. Inconclusive results and toxic doses are left out. The calls were made as follows: active = survival T/C of 150% or more; inactive = T/C below 125% in these data.
Tested on: CD2F1 mice, L1210 leukemia ip, survival T/C
Assay: NCI In Vivo Anticancer Drug Screen. Data for tumor model L1210 Leukemia (intraperitoneal) in CD2F1 (CDF1) mice
Conditions: endpoint: mean survival time, higher = longer survival
Summary of the method: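 Transplantable tumor in mice; compound-treated vs vehicle-treated groups. Read-out = treated/control ratio of the measured endpoint.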

[1] = dose: 100.0 mg/kg/injection, schedule: Q01DX001 (ip), vehicle: saline
[2] = dose: 200.0 mg/kg/injection, schedule: Q01DX001 (ip), vehicle: saline
[3] = dose: 400.0 mg/kg/injection, schedule: Q01DX001 (ip), vehicle: saline
[4] = dose: 100.0 mg/kg/injection, schedule: Q01DX001 (ip), vehicle: saline with Tween-80
[5] = dose: 200.0 mg/kg/injection, schedule: Q01DX001 (ip), vehicle: saline with Tween-80
[6] = dose: 400.0 mg/kg/injection, schedule: Q01DX001 (ip), vehicle: saline with Tween-80
[7] = dose: 100.0 mg/kg/injection, schedule: Q01DX001 (ip), vehicle: other
[8] = dose: 200.0 mg/kg/injection, schedule: Q01DX001 (ip), vehicle: other
[9] = dose: 400.0 mg/kg/injection, schedule: Q01DX001 (ip), vehicle: other
[10] = dose: 100.0 mg/kg/injection, schedule: Q01DX009 (ip), vehicle: saline with Tween-80
[11] = dose: 100.0 mg/kg/injection, schedule: Q04DX003 (ip), vehicle: saline with Tween-80
[12] = dose: 200.0 mg/kg/injection, schedule: Q01DX009 (ip), vehicle: saline with Tween-80
[13] = dose: 200.0 mg/kg/injection, schedule: Q04DX003 (ip), vehicle: saline with Tween-80
[14] = dose: 400.0 mg/kg/injection, schedule: Q01DX009 (ip), vehicle: saline with Tween-80
[15] = dose: 50.0 mg/kg/injection, schedule: Q01DX009 (ip), vehicle: saline
[16] = dose: 100.0 mg/kg/injection, schedule: Q01DX009 (ip), vehicle: saline
[17] = dose: 200.0 mg/kg/injection, schedule: Q01DX009 (ip), vehicle: saline
[18] = dose: 50.0 mg/kg/injection, schedule: Q04DX003 (ip), vehicle: saline with Tween-80

Measured: T/C

CC(C)CN1CCCC(=O)C(O)CCC1 (stereo not given)
inactive: dose: 25.0 mg/kg/injection, schedule: Q01DX009 (ip), vehicle: acetone 98 % of control | dose: 50.0 mg/kg/injection, schedule: Q01DX009 (ip), vehicle: acetone 93 % of control

CC(C)C(C)(C)OC(=O)c1ccc([N+](=O)[O-])cc1
inactive: [1] 100 % of control | [2] 96 % of control | [3] 98 % of control

[Cl][Pt+2][Cl].[NH-]c1nc(-c2ccccc2)cs1.[NH-]c1nc(-c2ccccc2)cs1
inactive: dose: 3.13 mg/kg/injection, schedule: Q04DX003 (ip), vehicle: distilled water + Tween-80 101 % of control | dose: 6.25 mg/kg/injection, schedule: Q04DX003 (ip), vehicle: distilled water + Tween-80 101 % of control | dose: 12.5 mg/kg/injection, schedule: Q04DX003 (ip), vehicle: distilled water + Tween-80 96 % of control | dose: 25.0 mg/kg/injection, schedule: Q04DX003 (ip), vehicle: distilled water + Tween-80 102 % of control | dose: 50.0 mg/kg/injection, schedule: Q04DX003 (ip), vehicle: distilled water + Tween-80 96 % of control | dose: 100.0 mg/kg/injection, schedule: Q04DX003 (ip), vehicle: distilled water + Tween-80 98 % of control | dose: 200.0 mg/kg/injection, schedule: Q04DX003 (ip), vehicle: distilled water + Tween-80 98 % of control

CCOC1(C)OC2OC(COC(c3ccccc3)(c3ccccc3)c3ccccc3)C(O)C(O)C2O1 (stereo not given)
inactive: dose: 12.5 mg/kg/injection, schedule: Q01DX009 (ip), vehicle: other 97 % of control | dose: 25.0 mg/kg/injection, schedule: Q01DX009 (ip), vehicle: other 103 % of control | dose: 50.0 mg/kg/injection, schedule: Q01DX009 (ip), vehicle: other 101 % of control | dose: 100.0 mg/kg/injection, schedule: Q01DX009 (ip), vehicle: other 98 % of control | dose: 200.0 mg/kg/injection, schedule: Q01DX009 (ip), vehicle: other 101 % of control

C/C(=N/Nc1ccc([N+](=O)[O-])cc1[N+](=O)[O-])C1CC2CCC1C2 (stereo not given)
inactive: [4] 100 % of control | [5] 96 % of control | [6] 96 % of control

CC(C)[C@]1(O)CC[C@H]2[C@@H]3CCc4cc(O)ccc4[C@H]3CC[C@@]21C
inactive: dose: 100.0 mg/kg/injection, schedule: Q01DX009 (sc), vehicle: Klucel (hydroxypropylcellulose) (HPC) 104 % of control | dose: 200.0 mg/kg/injection, schedule: Q01DX009 (sc), vehicle: Klucel (hydroxypropylcellulose) (HPC) 98 % of control | dose: 400.0 mg/kg/injection, schedule: Q01DX009 (sc), vehicle: Klucel (hydroxypropylcellulose) (HPC) 92 % of control

CC(=O)N1c2ccc(Br)cc2C(=O)C1C (stereo not given)
inactive: [7] 98 % of control | [8] 104 % of control | [9] 95 % of control

NC(N)=NCCN=C(N)N
inactive: [1] 105 % of control | [2] 94 % of control | [3] 100 % of control

CCON(C(C)=O)c1cccc([N+](=O)[O-])c1
inactive: [1] 97 % of control | [2] 100 % of control | [3] 97 % of control

CCN(CC)C1=C(Cl)C(=O)C(=O)c2cccnc21
inactive: dose: 9.4 mg/kg/injection, schedule: Q01DX009 (ip), vehicle: saline 101 % of control

O=C(O)/C=C/C(=O)Nc1cccc2ccccc12
inactive: dose: 50.0 mg/kg/injection, schedule: Q01DX009 (ip), vehicle: saline with Tween-80 105 % of control | [10] 100 % of control | [11] 95 % of control | [12] 89 % of control | [13] 105 % of control

O=C1OC(CBr)CC1(c1ccccc1)c1ccccc1 (stereo not given)
inactive: [4] 95 % of control | [10] 102 % of control | [5] 100 % of control | [12] 100 % of control | [6] 100 % of control | [14] 102 % of control

N=C1N(c2ccccc2)CCN1c1ccccc1
inactive: dose: 6.25 mg/kg/injection, schedule: Q04DX003 (ip), vehicle: saline with Tween-80 94 % of control | dose: 12.5 mg/kg/injection, schedule: Q04DX003 (ip), vehicle: saline with Tween-80 92 % of control

COc1cc(/C=C(\C#N)c2ccc([N+](=O)[O-])cc2)ccc1O
inactive: dose: 100.0 mg/kg/injection, schedule: Q04DX002 (ip), vehicle: saline with Tween-80 100 % of control | dose: 200.0 mg/kg/injection, schedule: Q04DX002 (ip), vehicle: saline with Tween-80 87 % of control | dose: 400.0 mg/kg/injection, schedule: Q04DX002 (ip), vehicle: saline with Tween-80 91 % of control

CC(C)(C)C1CCS(=O)(=O)CC1.[Cl][Hg][Cl]
inactive: dose: 0.25 mg/kg/injection, schedule: Q04DX003 (ip), vehicle: saline 104 % of control | dose: 0.5 mg/kg/injection, schedule: Q04DX003 (ip), vehicle: saline 94 % of control | dose: 1.0 mg/kg/injection, schedule: Q04DX003 (ip), vehicle: saline 100 % of control

C/C(=N\N=C(/C)c1cccc([N+](=O)[O-])c1)c1cccc([N+](=O)[O-])c1
inactive: dose: 100.0 mg/kg/injection, schedule: Q04DX002 (ip), vehicle: Klucel (hydroxypropylcellulose) (HPC) 104 % of control | dose: 200.0 mg/kg/injection, schedule: Q04DX002 (ip), vehicle: Klucel (hydroxypropylcellulose) (HPC) 97 % of control | dose: 400.0 mg/kg/injection, schedule: Q04DX002 (ip), vehicle: Klucel (hydroxypropylcellulose) (HPC) 108 % of control

O=C(O)CS(=O)(=O)CC(=O)O
inactive: dose: 25.0 mg/kg/injection, schedule: Q01DX001 (ip), vehicle: saline with Tween-80 93 % of control | dose: 50.0 mg/kg/injection, schedule: Q01DX001 (ip), vehicle: saline with Tween-80 104 % of control | [15] 90 % of control | [4] 102 % of control | [16] 89 % of control | [17] 93 % of control

O=C1C(=O)c2cccnc2C(NCc2ccccc2)=C1Cl
inactive: dose: 75.0 mg/kg/injection, schedule: Q04DX003 (ip), vehicle: saline 98 % of control | dose: 150.0 mg/kg/injection, schedule: Q04DX003 (ip), vehicle: saline 101 % of control | dose: 300.0 mg/kg/injection, schedule: Q04DX003 (ip), vehicle: saline 96 % of control

CCCCCCCCCc1ccc(OCCOCCOCCOCCOCCOCCOCCOCCOCCOC(C)N2CCCC2=O)cc1 (stereo not given)
inactive: dose: 25.0 mg/kg/injection, schedule: Q01DX009 (ip), vehicle: saline with Tween-80 96 % of control | [18] 108 % of control | [11] 93 % of control

[Cl][Pt+2][Cl].[NH-]CC(=O)O.[NH-]CC(=O)O
inactive: dose: 12.5 mg/kg/injection, schedule: Q01DX009 (ip), vehicle: saline 96 % of control | dose: 25.0 mg/kg/injection, schedule: Q01DX009 (ip), vehicle: saline 101 % of control | [15] 108 % of control | [16] 98 % of control | [17] 96 % of control

COC1OC(COC(=O)c2ccccc2)C(N(C)C(C)=O)C1OC(=O)c1ccccc1 (stereo not given)
inactive: dose: 75.0 mg/kg/injection, schedule: Q01DX001 (ip), vehicle: other 97 % of control | dose: 150.0 mg/kg/injection, schedule: Q01DX001 (ip), vehicle: other 103 % of control | dose: 300.0 mg/kg/injection, schedule: Q01DX001 (ip), vehicle: other 91 % of control

C=C1C(=O)O[C@H]2C[C@@]3(C)[C@H](O)CCC(=C)[C@@H]3[C@@H](OC(C)=O)[C@H]12
inactive: dose: 75.0 mg/kg/injection, schedule: Q01DX001 (ip), vehicle: saline 102 % of control | dose: 150.0 mg/kg/injection, schedule: Q01DX001 (ip), vehicle: saline 106 % of control | dose: 300.0 mg/kg/injection, schedule: Q01DX001 (ip), vehicle: saline 103 % of control

Nc1ccc(CCc2ccccc2)cc1
inactive: dose: 50.0 mg/kg/injection, schedule: Q04DX002 (ip), vehicle: saline with Tween-80 98 % of control and 105 % of control | [18] 104 % of control | [11] 100 % of control and 101 % of control and 107 % of control | [13] 92 % of control and 104 % of control

CCOC(CNCc1ccc(OC)cc1)OCC
inactive: [1] 104 % of control | [2] 111 % of control

Cc1cc(CO)c(O)c(CO)c1
inactive: [10] 91 % of control | [12] 91 % of control | [14] 91 % of control

c1coc(CNC2=NCCO2)c1
inactive: [7] 95 % of control | [8] 103 % of control | [9] 90 % of control

From PubChem BioAssay AID256 (DTP/NCI, 2004)
